The term EC50 denotes the concentration at which the effect is half-maximal. A high value points to weaker potency. A word on the Ki: it is a measure of affinity in units of concentration, obtained from inhibition or displacement.

The target in the test is Menin-MLL (Homo sapiens (Human), UniProt O00255). Put plainly: Determination of binding constants (Ki) to Menin-MLL (HTRF). The settings on record: HTRF, 0.25 nM H-FL-Menin, 3.2 nM FITC-MLL-4-43, 24 hr incubation; for Ki: read-out: Menin-MLL Ki HTRF Assay: Ki. A general note: TR-FRET usually uses a lanthanide donor and a delayed reading to cut background.
Chain of Menin-MLL (O00255 whole entry): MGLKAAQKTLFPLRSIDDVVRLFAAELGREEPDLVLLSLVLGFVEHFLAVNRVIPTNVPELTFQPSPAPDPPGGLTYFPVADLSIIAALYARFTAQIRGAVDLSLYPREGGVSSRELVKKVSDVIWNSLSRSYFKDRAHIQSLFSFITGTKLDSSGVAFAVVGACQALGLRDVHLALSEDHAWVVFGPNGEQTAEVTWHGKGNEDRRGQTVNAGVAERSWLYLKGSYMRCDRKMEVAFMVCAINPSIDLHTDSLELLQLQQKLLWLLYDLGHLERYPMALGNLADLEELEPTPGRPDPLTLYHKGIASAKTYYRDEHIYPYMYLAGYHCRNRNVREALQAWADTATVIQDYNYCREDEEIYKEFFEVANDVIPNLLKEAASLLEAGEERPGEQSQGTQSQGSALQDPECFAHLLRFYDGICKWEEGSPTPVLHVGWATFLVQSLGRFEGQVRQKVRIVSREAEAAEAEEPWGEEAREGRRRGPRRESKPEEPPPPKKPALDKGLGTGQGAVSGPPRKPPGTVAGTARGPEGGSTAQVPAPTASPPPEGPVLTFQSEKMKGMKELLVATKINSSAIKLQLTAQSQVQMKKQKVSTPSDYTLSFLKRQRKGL

SMILES strings stand for the structures. Bounds are passed on as bounds.

Regarding `CC(C)N(C(=O)c1cc(F)ccc1Oc1cncnc1N1CC2(CCN(C[C@@H]3CC[C@@H](NS(=O)(=O)C(C)C)CO3)CC2)C1)C1CC1` [Compound 20, N-cyclopropyl-5-fluoro-N-isopropyl-2-((4-(7-(((2S,5R)-5-((1-methylethyl)sulfonamido)tetrahydro-2H-pyran-2-yl)methyl)-2,7-diazaspiro[3.5]nonan-2-yl)pyrimidin-5-yl)oxy)benzamide], the EC50 was < 50 nM and the Ki is < 1 nM.
For `CCN(C(=O)c1cc(F)ccc1Oc1cncnc1N1CC2(CCN(C[C@@H]3CC[C@@H](NS(=O)(=O)c4ccc(Cl)cc4)CO3)CC2)C1)C(C)C` [Compound 61, 2-((4-(7-(((2S,5R)-5-((4-Chlorophenyl)sulfonamido)tetrahydro-2H-pyran-2-yl)methyl)-2,7-diazaspiro[3.5]nonan-2-yl)pyrimidin-5-yl)oxy)-N-ethyl-5-fluoro-N-isopropylbenzamide], in that order: < 50 nM and < 1 nM.
Regarding `CC(C)N(C(=O)c1cc(F)ccc1Oc1cncnc1N1CC2(CCN(C[C@@H]3CC[C@@H](NS(=O)(=O)N4CCC[C@H]4C)CO3)CC2)C1)[C@@H]1CCOC1` [Compound 204, 5-Fluoro-N-isopropyl-2-((4-(7-(((2S,5R)-5-(((R)-2-methylpyrrolidine)-1-sulfonamido)tetrahydro-2H-pyran-2-yl)methyl)-2,7-diazaspiro[3.5]nonan-2-yl)pyrimidin-5-yl)oxy)-N-((R)-tetrahydrofuran-3-yl)benzamide], the Ki is < 1 nM.
Still for that read-out and setting: then `Cc1nc(S(=O)(=O)N[C@@H]2CC[C@@H](CN3CCC4(CC3)CN(c3ncncc3Oc3ccc(F)cc3C(=O)N(C)C(C)C)C4)OC2)cs1` [Compound 54, 5-Fluoro-N-isopropyl-N-methyl-2-((4-(7-(((2S,5R)-5-((2-methylthiazole)-4-sulfonamido)tetrahydro-2H-pyran-2-yl)methyl)-2,7-diazaspiro[3.5]nonan-2-yl)pyrimidin-5-yl)oxy)benzamide], with < 1 nM; and `CC(C)N(C)C(=O)c1cc(F)ccc1Oc1cncnc1N1CC2(CCN(C[C@@H]3CC[C@@H](NS(=O)(=O)N(C)C)CO3)CC2)C1` [Compound 137, 2-((4-(7-(((2S,5R)-5-((N,N-Dimethylsulfamoyl)amino)tetrahydro-2H-pyran-2-yl)methyl)-2,7-diazaspiro[3.5]nonan-2-yl)pyrimidin-5-yl)oxy)-5-fluoro-N-isopropyl-N-methylbenzamide], with < 1 nM.
Regarding `CCN(C(=O)c1cc(F)ccc1Oc1cncnc1N1CC2(CCN(C[C@@H]3CC[C@@H](NC(=O)Nc4ccccc4)CO3)CC2)C1)C(C)C` [Compound 215, N-Ethyl-5-fluoro-N-isopropyl-2-((4-(7-(((2S,5R)-5-(3-phenylureido)tetrahydro-2H-pyran-2-yl)methyl)-2,7-diazaspiro[3.5]nonan-2-yl)pyrimidin-5-yl)oxy)benzamide], the half-maximal effective concentration (EC50) lay within 50 to 100 nM.
As for `CCS(=O)(=O)N[C@@H]1CC[C@@H](CN2CCC3(CC2)CN(c2ncncc2Oc2ccc(F)cc2C(=O)N(CCC(F)F)C(C)C)C3)OC1` [Compound 242, N-(3,3-Difluoropropyl)-2-((4-(7-(((2S,5R)-5-(ethylsulfonamido)tetrahydro-2H-pyran-2-yl)methyl)-2,7-diazaspiro[3.5]nonan-2-yl)pyrimidin-5-yl)oxy)-5-fluoro-N-isopropylbenzamide], the EC50 is < 50 nM and the Ki was < 1 nM.
Consider `CCS(=O)(=O)N[C@@H]1CC[C@@H](CN2CCC3(CC2)CN(c2ncncc2Oc2ccc(F)cc2C(=O)N(CC(F)(F)F)C(C)C)C3)OC1` [Compound 152, 2-((4-(7-(((2S,5R)-5-(Ethylsulfonamido)tetrahydro-2H-pyran-2-yl)methyl)-2,7-diazaspiro[3.5]nonan-2-yl)pyrimidin-5-yl)oxy)-5-fluoro-N-isopropyl-N-(2,2,2-trifluoroethyl)benzamide], for which the EC50 is < 50 nM and the Ki is < 1 nM.
For `C[C@@H]1COC[C@H](C)N1C(=O)c1cc(F)ccc1Oc1cncnc1N1CC2(CCN(C[C@@H]3CC[C@@H](NS(C)(=O)=O)CO3)CC2)C1` [Compound 23, N-((3R,6S)-6-((2-(5-(2-((3S,5R)-3,5-dimethylmorpholine-4-carbonyl)-4-fluorophenoxy)pyrimidin-4-yl)-2,7-diazaspiro[3.5]nonan-7-yl)methyl)tetrahydro-2H-pyran-3-yl)methanesulfonamide], in that order: < 50 nM and < 1 nM.
The matching figures for `C[C@@H]1COC[C@@H](C)N1C(=O)c1cc(F)ccc1Oc1cncnc1N1CC2(CCN(C[C@@H]3CC[C@@H](NS(C)(=O)=O)CO3)CC2)C1` [Compound 28, N-((3R,6S)-6-((2-(5-(2-((3R,5R)-3,5-dimethylmorpholine-4-carbonyl)-4-fluorophenoxy)pyrimidin-4-yl)-2,7-diazaspiro[3.5]nonan-7-yl)methyl)tetrahydro-2H-pyran-3-yl)methanesulfonamide]: < 50 nM and < 1 nM.
In the case of `CC(C)N(CC(F)F)C(=O)c1cc(F)ccc1Oc1cncnc1N1CC2(CCN(C[C@@H]3CC[C@@H](NS(=O)(=O)N(C)CCOCc4ccccc4)CO3)CC2)C1` [Compound 238], the Ki is < 1 nM.
In the case of `CC(C)N(C(=O)c1cc(F)ccc1Oc1cncnc1N1CC2(CCN(C[C@@H]3CC[C@@H](NS(=O)(=O)C(C)C)CO3)CC2)C1)[C@@H]1CCOC1` [Compound 132, 5-Fluoro-N-i sopropyl-2-((4-(7-(((2S,5R)-5-((1-methylethyl)sulfonamido)tetrahydro-2H-pyran-2-yl)methyl)-2,7-diazaspiro[3.5]nonan-2-yl)pyrimidin-5-yl)oxy)-N-((R)-tetrahydrofuran-3-yl)benzamide], the EC50 is < 50 nM and the Ki is < 1 nM.
For `CCCNC(=O)N[C@@H]1CC[C@@H](CN2CCC3(CC2)CN(c2ncncc2Oc2ccc(F)cc2C(=O)N(CC)C(C)C)C3)OC1` [Compound 38, N-ethyl-5-fluoro-N-isopropyl-2-((4-(7-(((2S,5R)-5-(3-propylureido)tetrahydro-2H-pyran-2-yl)methyl)-2,7-diazaspiro[3.5]nonan-2-yl)pyrimidin-5-yl)oxy)benzamide], in that order: 50 to 100 nM and 1 to 1.5 nM.
Regarding `CC(C)N(C)C(=O)c1cc(F)ccc1Oc1cncnc1N1CC2(CCN(C[C@@H]3CC[C@@H](NS(=O)(=O)c4cnn(C)c4)CO3)CC2)C1` [Compound 139, 5-Fluoro-N-isopropyl-N-methyl-2-((4-(7-(((2S,5R)-5-((1-methyl-1H-pyrazole)-4-sulfonamido)tetrahydro-2H-pyran-2-yl)methyl)-2,7-diazaspiro[3.5]nonan-2-yl)pyrimidin-5-yl)oxy)benzamide], the Ki is < 1 nM.
For the compound `CCNS(=O)(=O)N[C@@H]1CC[C@@H](CN2CCC3(CC2)CN(c2ncnnc2Oc2ccc(F)cc2C(=O)N(CC(F)F)C(C)C)C3)OC1` [Compound 188, N-(2,2-Difluoroethyl)-2-((5-(7-(((2S,5R)-5-((N-ethylsulfamoyl)amino)tetrahydro-2H-pyran-2-yl)methyl)-2,7-diazaspiro[3.5]nonan-2-yl)-1,2,4-triazin-6-yl)oxy)-5-fluoro-N-isopropylbenzamide], the Ki was < 1 nM.
